# Experimental data from US9758538B2, “Pyrimidine derivatives” (PFIZER INC., priority 2015, dated 2017).
# pKi: −log10 of the molar value.
# Biological target: truncated PI3Kα (p110α/iSH2 p85α), PI3KA_Act (Homo sapiens (Human), UniProt P42336)
# Test: PI3Kα biochemical kinase assay, fluorescence polarization format (PI3KA_Act)
# Details: 0.5 nM p110α/iSH2 p85, 1 mM ATP, 30 μM PIP2, 15-min preincubation; Morrison equation fit; read-out: PI3KA_Act Ki
# Procedure, shortened: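 Enzyme: His-tagged p110α/p85α niSH2 complex from Sf21 baculovirus expression, IMAC-purified, tag cleaved, then SEC. Reactions ran 30 min at room temperature, stopped with 10 mM EDTA pH 8 (final), and were read by fluorescence polarization.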
# truncated PI3Kα (p110α/iSH2 p85α), PI3KA_Act, sequence (P42336 whole entry, the tested form may be a part): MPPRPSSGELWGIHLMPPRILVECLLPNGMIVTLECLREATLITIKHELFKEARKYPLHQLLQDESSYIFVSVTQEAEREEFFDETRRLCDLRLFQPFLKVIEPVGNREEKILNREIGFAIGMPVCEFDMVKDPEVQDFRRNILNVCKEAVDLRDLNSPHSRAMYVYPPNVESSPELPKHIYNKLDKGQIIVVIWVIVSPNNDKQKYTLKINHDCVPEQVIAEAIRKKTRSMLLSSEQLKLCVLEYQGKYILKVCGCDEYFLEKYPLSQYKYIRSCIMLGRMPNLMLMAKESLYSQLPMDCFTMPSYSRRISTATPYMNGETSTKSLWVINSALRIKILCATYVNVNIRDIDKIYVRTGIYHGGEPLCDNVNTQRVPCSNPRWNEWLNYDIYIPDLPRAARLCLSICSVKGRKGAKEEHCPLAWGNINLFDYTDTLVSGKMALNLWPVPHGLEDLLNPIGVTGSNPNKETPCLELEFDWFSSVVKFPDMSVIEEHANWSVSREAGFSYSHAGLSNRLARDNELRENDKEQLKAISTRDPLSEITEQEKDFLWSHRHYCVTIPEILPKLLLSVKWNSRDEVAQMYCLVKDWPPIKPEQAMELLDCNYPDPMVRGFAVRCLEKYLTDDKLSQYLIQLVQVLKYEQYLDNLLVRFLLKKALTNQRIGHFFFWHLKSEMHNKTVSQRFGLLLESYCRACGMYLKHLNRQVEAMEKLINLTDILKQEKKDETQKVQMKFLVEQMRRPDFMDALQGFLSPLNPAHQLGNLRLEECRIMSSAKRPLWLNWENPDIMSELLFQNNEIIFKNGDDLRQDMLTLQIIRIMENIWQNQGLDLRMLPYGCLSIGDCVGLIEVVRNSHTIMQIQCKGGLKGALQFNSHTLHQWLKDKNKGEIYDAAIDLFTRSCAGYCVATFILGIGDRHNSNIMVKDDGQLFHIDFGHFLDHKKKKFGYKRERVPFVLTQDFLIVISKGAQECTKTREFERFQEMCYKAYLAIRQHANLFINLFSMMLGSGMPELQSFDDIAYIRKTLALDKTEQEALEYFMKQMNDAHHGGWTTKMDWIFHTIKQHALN
row,pKi,SMILES
1,9.07,"CC(=O)N1CCC[C@](CO)(Nc2nc(N3CCOCC3)nc(-c3cnc(N)nc3)c2F)C1 [Example 153, 1-[(3S)-3-{[2′-amino-5-fluoro-2-(morpholin-4-yl)-4,5′-bipyrimidin-6-yl]amino}-3-(hydroxymethyl)piperidin-1-yl]ethanone]"
2,> 10.74,"COC(=O)N1CCC[C@](CO)(Nc2nc(N3CCOCC3)nc(-c3cnc(N)nc3)c2F)C1 [Example 154, methyl (3S)-3-{[2′-amino-5-fluoro-2-(morpholin-4-yl)-4,5′-bipyrimidin-6-yl]amino}-3-(hydroxymethyl)piperidine-1-carboxylate]"
3,8.51,"COC(=O)N1CCC[C@@](CO)(Nc2nc(N3CCOCC3)nc(-c3cnc(N)nc3)c2F)C1 [Example 155, methyl (3R)-3-{[2′-amino-5-fluoro-2-(morpholin-4-yl)-4,5′-bipyrimidin-6-yl]amino}-3-(hydroxymethyl)piperidine-1-carboxylate]"
4,9.34,"Nc1ncc(-c2nc(N3CCOCC3)nc(N[C@@]3(CO)CCCN(C(=O)C4CC4)C3)c2F)cn1 [Example 156, [(3S)-3-{[2′-amino-5-fluoro-2-(morpholin-4-yl)-4,5′-bipyrimidin-6-yl]amino}-3-(hydroxymethyl)piperidin-1-yl](cyclopropyl)methanone]"
5,8.73,"Nc1ncc(-c2nc(N3CCOCC3)nc(N[C@]3(CO)CCCN(C(=O)C4CC4)C3)c2F)cn1 [Example 157, [(3R)-3-{[2′-amino-5-fluoro-2-(morpholin-4-yl)-4,5′-bipyrimidin-6-yl]amino}-3-(hydroxymethyl)piperidin-1-yl](cyclopropyl)methanone]"
6,9.99,"Nc1ncc(-c2nc(N3CCOCC3)nc(N[C@@]3(CO)CCCN(C(=O)C4(F)CC4)C3)c2F)cn1 [Example 159, [(3S)-3-{[2′-amino-5-fluoro-2-(morpholin-4-yl)-4,5′-bipyrimidin-6-yl]amino}-3-(hydroxymethyl)piperidin-1-yl](1-fluorocyclopropyl)methanone]"
